Series [1] concerns the target T1, 3-phosphoinositide-dependent protein kinase 1 (Homo sapiens, UniProt O15530).
T1 sequence (O15530 whole entry): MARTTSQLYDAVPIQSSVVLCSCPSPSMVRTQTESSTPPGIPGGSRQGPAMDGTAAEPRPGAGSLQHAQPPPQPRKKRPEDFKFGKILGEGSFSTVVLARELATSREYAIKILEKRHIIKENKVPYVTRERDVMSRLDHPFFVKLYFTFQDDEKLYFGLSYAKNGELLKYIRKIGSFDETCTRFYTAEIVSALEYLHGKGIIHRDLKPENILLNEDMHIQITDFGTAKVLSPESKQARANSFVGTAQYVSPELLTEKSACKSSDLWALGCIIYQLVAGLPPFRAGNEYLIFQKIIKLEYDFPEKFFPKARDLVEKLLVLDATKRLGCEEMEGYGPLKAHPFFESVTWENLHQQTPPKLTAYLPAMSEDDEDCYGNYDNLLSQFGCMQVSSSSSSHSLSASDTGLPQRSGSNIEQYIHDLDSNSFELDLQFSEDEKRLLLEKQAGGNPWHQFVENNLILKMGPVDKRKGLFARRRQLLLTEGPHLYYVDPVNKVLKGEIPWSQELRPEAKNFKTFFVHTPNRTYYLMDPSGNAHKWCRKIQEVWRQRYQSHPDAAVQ
Kind of series: Displacement of PIFtide from human PDK1 PIF pocket after 1 hr by fluorescence polarization assay. For orientation: In fluorescence polarisation assays a small probe gives low polarisation when free and higher when bound to something large.

The target in series [2] is Cruzipain (Trypanosoma cruzi) (UniProt P25779). Kind of series: Inhibition of Trypanosoma cruzi Cruzain using Z-FR-AMC as substrate preincubated for 5 mins followed by substrate addition measured for 5 mins by spectrofluorimetric analysis.
Cruzipain (Trypanosoma cruzi), sequence (P25779 123-467 limits assumed): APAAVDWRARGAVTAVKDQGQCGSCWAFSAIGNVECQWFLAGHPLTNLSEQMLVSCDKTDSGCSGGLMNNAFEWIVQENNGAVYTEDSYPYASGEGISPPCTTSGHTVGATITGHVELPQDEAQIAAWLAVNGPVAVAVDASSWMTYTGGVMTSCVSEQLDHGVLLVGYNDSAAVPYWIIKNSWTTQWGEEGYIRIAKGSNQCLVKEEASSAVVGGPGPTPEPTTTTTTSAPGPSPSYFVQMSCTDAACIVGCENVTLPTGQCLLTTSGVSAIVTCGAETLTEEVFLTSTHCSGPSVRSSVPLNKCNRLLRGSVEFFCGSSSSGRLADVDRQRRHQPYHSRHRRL
A short description of series [3]: Induction of colloidal aggregates formation in Tris/NaCl/MgCl2/CHAPS/beta-mercaptoethanol buffer at 200 uM by dynamic light scattering method. Format: physicochemical.
Series [4] is described as follows: Induction of colloidal aggregates formation in Tris/NaCl/Pluronic F-68 buffer at 100 uM by dynamic light scattering method. Format: physicochemical.
The target of series [5] is T1, 3-phosphoinositide-dependent protein kinase 1. In words: Activation of human PDK1 catalytic activity using T308tide as substrate after 1 hr by phosphor imager analysis in presence of [gamma-32P]-ATP relative to control.
Series [6] is described as follows: Induction of colloidal aggregates formation in Tris/NaCl/Pluronic F-68 buffer at 300 uM by dynamic light scattering method. Format: physicochemical.

Active and inactive are the calls of the source. The rule behind the calls is not given here.

The results in this text go back to ChEMBL document CHEMBL3621144, “Small-Molecule Allosteric Modulators of the Protein Kinase PDK1 from Structure-Based Docking” (J Med Chem, 2015).

In the case of `O=C(O)CSc1nc2ccccc2n1CCOc1ccccc1`, in series [1], binding was put at a Kd of 120 µM. With `O=C(O)Cn1c(SCCOc2ccccc2F)nc2ccccc21`, in series [1], the Kd is more than 200 µM. Still for that read-out and setting: the value for `Cc1cccc(OCCSc2nc3ccccc3n2CC(=O)O)c1C` was 110 µM. Same read-out and setting: the value for `C[C@@H](CN[C@H](c1ccc(F)c(F)c1)P(=O)(O)O)c1ccccc1` was 83 µM; that for `Cc1cccc(OCCn2c(SCC(=O)O)nc3ccccc32)c1` was 75 µM. Same read-out and setting: as for `Cc1ccccc1OCCSc1nc2ccccc2n1CC(=O)O`, the figure is 50 µM. As for `O=C(O)C/C(=C/c1cccc(C(F)(F)F)c1)c1nc2ccccc2o1`, the Kd in series [1] is more than 200 µM. `O=C(O)Cn1c(SCc2ccccc2)nc2ccccc21` yielded a Kd in series [1] of more than 200 µM. On the same count and under the same terms, as for `C[C@H](CN[C@H](c1ccc(F)cc1)P(=O)(O)O)c1ccccc1`, the figure is more than 200 µM; as for `Cc1ccccc1OCCSc1nc2ccccc2n1CCC(=O)O`, 74 µM. `Cc1ccc(OCCSc2nc3ccccc3n2CC(=O)O)c(C)c1` displayed a Kd in series [1] of 39.1 µM. Also, the inhibition entry in series [2] is “inactive”. The Activity entry in series [3], in series [4] and in series [6] was “Not Active” throughout. In addition, the EC50 in series [5] worked out at 40 µM. The compound `O=C(O)Cn1c(SCCOc2ccccc2)nc2ccccc21` showed a Kd in series [1] of more than 200 µM. Still for that read-out and setting: as for `COc1ccccc1OCCSc1nc2ccccc2n1CC(=O)O`, the figure is more than 200 µM.

In turn, `O=P(O)(O)[C@H](NC[C@@H]1CCCc2ccccc21)c1ccc(F)cc1` showed a Kd in series [1] of 39.4 µM. The inhibition result in series [2] is “inactive”. Besides, the Activity result in series [3] and in series [6] was “Not Active” throughout. Also, the EC50 in series [5] turned out to be 50 µM.

`O=C(O)Cn1c(SCc2cccc3ccccc23)nc2ccccc21`: the Kd in series [1] is 120 µM. `C[C@@H](CN[C@H](c1ccccc1)P(=O)(O)O)c1ccccc1` registered a dissociation constant Kd in series [1] of 150 µM. Regarding `O=P(O)(O)[C@H](NCCc1ccc(F)cc1)c1ccc(F)cc1`, the Kd in series [1] is more than 200 µM.

As a reminder, the Kd is the constant that tells how readily two partners part at equilibrium. A lower Kd goes with higher affinity. By EC50 is commonly meant the concentration giving half of the maximal effect.
